Test results published in patent US20260234188A1, “CHEMOKINE-BINDING PEPTIDES” (Oxford University Innovation Limited, priority 2022, published 2026).
“Also recorded” adds a separate entry of the source. Ends that are not written are not given here.

Key:
[1] = system: panel of up to 42 human chemokines; test: Phage-display next generation sequencing screen of overlapping hexadecapeptide libraries, chemokines displayed on streptavidin beads; assay type: binding; settings: log2E greater than 5, chemokines named by first part of UniProt Entry Name, peptides binding complement C5a (control) excluded;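 note: chemokine listed when log2 fold enrichment exceeds 5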
Outline: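 Phage-display libraries of 55662 overlapping hexadecapeptides from tick and viral chemokine-binding proteins, human chemokines and chemokine receptors screened against up to 42 human chemokines, with hits found by next-generation sequencing. Peptides mapped to parent-protein position with log2 fold enrichment; regions of interest where cumulative residue log2 E exceeds the 95% upper CI of the protein median.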

[2] = molecular target: T1, CXCL9 (Homo sapiens, UniProt Q07325); test: CXCL9-induced activated T-cell migration, transwell assay; assay type: cell-based; settings: peptide 10 μM, chemokine at EC80
T1 construct: purchased Peprotech
T1 sequence (Q07325 23-125): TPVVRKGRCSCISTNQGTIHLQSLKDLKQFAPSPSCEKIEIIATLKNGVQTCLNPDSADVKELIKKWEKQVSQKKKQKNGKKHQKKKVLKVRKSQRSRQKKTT
Procedure: (§1) FIG. 2. […] BK1.2 is described in (Darlot, 2020). […] Chemokines used are indicated by the name, followed in parenthesis by the supplier code (P in supplier code indicates Peprotech). […] All experiments were performed at EC80 doses of indicated chemokine. Data are shown as box-whisker plots of three technical and three biological replicates. Statistically significant differences (compared to control, indicated by #), using Dunnett's test with correction for multiple comparisons, are indicated by asterisks: ****=P≤0.0001, ***=P≤0.001, **=P≤0.01, *=P≤0.05.
(§2) Briefly, cell migration assays use THP1 cells (human monocyte) and primary human buffy coat white cells (consisting of neutrophil granulocytes, monocytes, and lymphocytes), and activated T-cells. THP1 cells and primary monocytes respond to CCL2, CCL3, CCL5, CCL8 and CXCL4, granulocytes to CXCL1 and CXCL8, activated T-cells to CXCL9/10/11. Assays are performed in 96-well Boyden chambers, and migrated cells counted and characterized using and ATTUNE Flow Cytometer as described. Triplicate assays are performed at the EC80 dose of each chemokine at 10 μM peptide concentration.
(§3) The J:CXCR1 cell line was generated by transfecting Jurkat cells by electroporation with PvuI-linearized plasmid D1398 and selecting with blasticidin (Sigma-Aldrich, Cat #203350, […]). […] J:CXCR1 cells were cultured in RPMI-1640 media (Gibco), supplemented with 10% FBS and 5 mM L-Glutamine with blasticidin. For J:CXCR1 migration assays, 300,000 cells/well were added to the top chamber of a 3 μm Transwell insert (Corning) in 50 μL of migration media (RPMI-1640, 0.5% FBS, 4 mM L-Glutamine, 0.05% DMSO). The bottom chamber contained 150 μL of chemokine, with or without peptide. Cells were migrated at 37° C. in 5% CO2 for 4 hours. The plate was incubated on a shaking platform for 10 minutes, 800 rpm, at 37° C., and 150 μL from the bottom of the plate transferred into a U-bottom plate containing 50 μL of migration media. Cell counts were determined by Attune NxT Flow Cytometer Plate Reader (ThermoFisher), based on cell size parameters FSC-H/SSC-H. Experiments were performed in 3 technical and 3 biological replicates. THP-1 migration assays were carried out using methods known in the art. Activated T-cell assays were carried out using methods known in the art, with the following modifications in the isolation process. Peripheral blood cells were obtained from leucocyte cones (NHS Blood Transfusion Services), following which, T-cells were isolated using two rounds of human CD8+ T-cell isolation kit (480011, BioLegend). At day 10 after activation, T-cells were frozen at 20 E6 cells/ml in TexMACS medium supplemented with 10% DMSO (D2650, Sigma) in liquid nitrogen. Prior to use, activated T-cells were recovered for 24 hours in TexMACs medium at 0.3 E6 cells/ml and incubated at 37° C. in 5% CO2. Chemokine sources are described in Supplementary information Table 3. Statistical significances between control experimental groups was evaluated using Dunnett's test. IC50 experiments were performed at the EC80 dose of chemokine. EC80 was calculated by fitting a chemokine dose-response curve with 3 parameters (fixing the top to 100%). IC50 was calculated by fitting an inhibitor response curve with 4 parameters.

[3] = molecular target: T2, CXCL10 (Homo sapiens, UniProt P02778); test: CXCL10-induced activated T-cell migration, transwell assay; assay type: cell-based; settings: peptide 10 μM, chemokine at EC80
T2 construct: purchased Peprotech
T2 sequence (P02778 22-98): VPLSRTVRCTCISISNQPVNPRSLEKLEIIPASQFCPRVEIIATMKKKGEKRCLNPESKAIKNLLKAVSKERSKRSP
Procedure: as §1
FIG. 11. […] Technical replicates are shown as individual data points. […] The response curve (solid blue line) and its 95% confidence interval (grey ribbon) were calculated using a 4-parameter log-logistic plot.
as §2, with “Triplicate assays are performed at the EC80 dose of each chemokine at 10 μM peptide concentration.” left out

[4] = molecular target: T3, CXCL11 (Homo sapiens, UniProt O14625); test: CXCL11-induced activated T-cell migration, transwell assay; assay type: cell-based; settings: peptide 10 μM, chemokine at EC80
T3 construct: purchased Peprotech
T3 sequence (O14625 22-94): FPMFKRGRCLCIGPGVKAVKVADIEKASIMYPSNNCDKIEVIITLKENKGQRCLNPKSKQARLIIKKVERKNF
Procedure: as §1, §2, §3

[5] = molecular target: T4, panel of 25 biotinylated chemokines (Homo sapiens, UniProt P48061); test: Phage-display screen of HD2 combinatorial mutagenesis library; assay type: binding; settings: CXCL12
T4 construct: purchased Almac or ProteinFoundry
Excerpt: FIG. 20. Phage display-combinatorial mutagenesis. FIG. 20A, Tile-plot (bottom panel) showing impact of selected HD2 mutations on Δlog 2 E for all chemokines studied. Δlog 2 E is the difference in log 2 E between the parental wild-type peptide and the mutant variant following phage-display selection. See methods for a description of the strategy used for selecting individual mutations. FIG. 20B, All possible combinations of 16 selected single mutations (coloured using the Taylor scale) at 11 residue locations were combined to create a phage-display library with 3585 mutation combinations. The library included the parental HD2 sequence and single mutations as well. Library cloning, screening and analysis was performed as described in the examples.
Combinations of different mutations identified by saturation mutagenesis selection were then studied to see if they could result in additive or cooperative effects, allowing further evolution of peptide function in a desired direction. Traditionally, the selection of two or more mutations in combination is guided by knowledge of the structure of the protein-peptide interface. This approach works well when designing agents against a single target where the interface structure has been experimentally characterised but is challenging when designing agents active against multiple targets, where the interface structures have not been experimentally characterised. To systematically identify mutation combinations that work well against multiple structurally related targets we explored the possibility of using phage-display to select combinations of mutations that bind CC or XC classes of chemokines. […]
As CC and XC binding peptides appeared to have a different improving mutation spectrum we selected mutations using an algorithm that optimizes CC and XC improving mutations separately. […] The library quality was assessed by NGS AmpliconEZ (50,000 reads), and 3584 of 3585 inserts were identified. […]

[6] = molecular target: CXCL12 (Homo sapiens, UniProt P48061); assay type: cell-based; set-up: activity in inhibiting migration of activated T cells in comparison to HD2_Y5W: dose or concentration left out as unconfirmed; settings: peptides final concentration as printed, chemokine at EC80
Procedure: FIG. 22. Effect of selected combinatorial HD2 mutations on chemotaxis. FIG. 22A. Box-whisker plot showing the effect of the exemplar single and combinatorically mutant (CM) HD2 peptides on activated-T cell (ATC) migration induced by CXCL12. All experiments were performed as at least three technical and three biological replicates, and individual data points are indicated. […] HD2SCR is a scrambled version of HD2. […] Statistically significant differences (compared to control, HD2_Y5W, coloured blue), using Dunnett's test with correction for multiple comparisons, are indicated by asterisks: ****=P≤0.0001, ***=P≤0.001, **=P≤0.01, *=P≤0.05. All comparisons were made to HD2_Y5W, as it is present in CM539, CM452, and CM304. […] Technical replicates are shown as individual data points. […] The response curve (solid blue line) and its 95% confidence interval (grey ribbon) were calculated using a 4-parameter log-logistic plot. The agonist and estimated IC50 (dotted green line) are indicated.
as §3
Migration assays using THP1, activated T-cell (ATC) and J:CXCR1 (Jurkat cells stably transfected with CXCR1 receptor) were performed as described previously. IC50 experiments were performed at the EC80 dose of chemokine. EC80 was calculated by fitting a chemokine dose-response curve with 3 parameters (fixing the top to 100%). IC50 was calculated by fitting an inhibitor response curve with 4 parameters. R-packages used were ggupset_0.3.0, DescTools_0.99.44, and drc_3.0-1.

Chain of CXCL12 (P48061 22-89 limits assumed): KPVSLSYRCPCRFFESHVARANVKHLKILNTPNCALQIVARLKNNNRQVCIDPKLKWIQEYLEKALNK
T4 sequence (P48061 22-89 limits assumed): as above

Substance	Chemokines Bound [1]	inhibition of cell migration [2]	inhibition of cell migration [3]	inhibition of cell migration [4]	binding in phage display [5]	activity in inhibiting migration of activated T cells in comparison to HD2_Y5W [6]
CVEITYFGDFGDPSQD [EB429]	CXL10, CXL11,; also recorded: SDF1, CXL13	inhibit cell migration	inhibit cell migration	inhibit cell migration		
DEDDWDAYAPIWCYFT-NH2 [CM304, DEDDWDAYAPIWCYFT]					enhanced binding	significantly enhanced activity
DDDDWDAYAPIWCYFT [CM452]					enhanced binding	significantly enhanced activity
DDDDWDDYAPITCYFD [CM539]					enhanced binding	significantly enhanced activity
